Laboratory results from ChEMBL document CHEMBL5614367, “Hydroxamic acid hybrids: Histone deacetylase inhibitors with anticancer therapeutic potency” (Eur J Med Chem, 2023).
pIC50: −log10 of the molar value. Blank lines part the entries; values can stand above or below the compound they belong to.

Key:
A549 [1] = assay: Antiproliferative activity against human A549 cells
HepG2 [2] = assay: Antiproliferative activity against human HepG2 cells; format: functional, cell-based
HT-29 = assay: Antiproliferative activity against human HT-29 cells; format: functional, cell-based
HCT-116 [3] = assay: cells; details: Homo sapiens
KYSE-450 = assay: Antiproliferative activity against human KYSE-450 cells; format: functional, cell-based
MGC-803 = assay: Antitumor activity against human MGC-803 cells xenografted in mouse assessed as tumor growth inhibition at 20 mg/kg relative to control; format: functional; details: read-out: TGI
MCF7 [4] = assay: cells; details: Homo sapiens
HeLa [5] = assay: Antiproliferative activity against human HeLa cells; format: functional, cell-based
K562 = assay: Antiproliferative activity against human K562 cells assessed as cell growth inhibition by SRB assay; format: functional
HeLa [6] = assay: Antiproliferative activity against human HeLa cells assessed as cell growth inhibition by SRB assay; format: functional
A549 [7] = assay: Antiproliferative activity against human A549 cells assessed as cell growth inhibition by SRB assay; format: functional
HeLa [8] = assay: Antiproliferative activity against human HeLa cells measured after 24 hrs by MTT assay; format: functional, cell-based
MCF7 [9] = assay: Antiproliferative activity against human MCF7 cells assessed as cell growth inhibition by SRB assay; format: functional
HCT-116 [10] = assay: Antiproliferative activity against human HCT-116 cells measured after 24 hrs by MTT assay; format: functional, cell-based; details: HCT-116, 24 h
HepG2 [11] = assay: Antiproliferative activity against human HepG2 cells measured after 24 hrs by MTT assay; format: functional, cell-based; details: HepG2, 24 h
HL-60 = assay: Antiproliferative activity against human HL-60 cells; format: functional, cell-based
MDA-MB-231 = assay: Antiproliferative activity against human MDA-MB-231 cells
A-375 = assay: Antiproliferative activity against human A-375 cells; format: functional, cell-based
[12] = target: T1, Protein deacetylase HDAC6 (Homo sapiens, UniProt Q9UBN7); assay: Inhibition of HDAC6 (unknown origin)
T1 sequence (Q9UBN7 whole entry): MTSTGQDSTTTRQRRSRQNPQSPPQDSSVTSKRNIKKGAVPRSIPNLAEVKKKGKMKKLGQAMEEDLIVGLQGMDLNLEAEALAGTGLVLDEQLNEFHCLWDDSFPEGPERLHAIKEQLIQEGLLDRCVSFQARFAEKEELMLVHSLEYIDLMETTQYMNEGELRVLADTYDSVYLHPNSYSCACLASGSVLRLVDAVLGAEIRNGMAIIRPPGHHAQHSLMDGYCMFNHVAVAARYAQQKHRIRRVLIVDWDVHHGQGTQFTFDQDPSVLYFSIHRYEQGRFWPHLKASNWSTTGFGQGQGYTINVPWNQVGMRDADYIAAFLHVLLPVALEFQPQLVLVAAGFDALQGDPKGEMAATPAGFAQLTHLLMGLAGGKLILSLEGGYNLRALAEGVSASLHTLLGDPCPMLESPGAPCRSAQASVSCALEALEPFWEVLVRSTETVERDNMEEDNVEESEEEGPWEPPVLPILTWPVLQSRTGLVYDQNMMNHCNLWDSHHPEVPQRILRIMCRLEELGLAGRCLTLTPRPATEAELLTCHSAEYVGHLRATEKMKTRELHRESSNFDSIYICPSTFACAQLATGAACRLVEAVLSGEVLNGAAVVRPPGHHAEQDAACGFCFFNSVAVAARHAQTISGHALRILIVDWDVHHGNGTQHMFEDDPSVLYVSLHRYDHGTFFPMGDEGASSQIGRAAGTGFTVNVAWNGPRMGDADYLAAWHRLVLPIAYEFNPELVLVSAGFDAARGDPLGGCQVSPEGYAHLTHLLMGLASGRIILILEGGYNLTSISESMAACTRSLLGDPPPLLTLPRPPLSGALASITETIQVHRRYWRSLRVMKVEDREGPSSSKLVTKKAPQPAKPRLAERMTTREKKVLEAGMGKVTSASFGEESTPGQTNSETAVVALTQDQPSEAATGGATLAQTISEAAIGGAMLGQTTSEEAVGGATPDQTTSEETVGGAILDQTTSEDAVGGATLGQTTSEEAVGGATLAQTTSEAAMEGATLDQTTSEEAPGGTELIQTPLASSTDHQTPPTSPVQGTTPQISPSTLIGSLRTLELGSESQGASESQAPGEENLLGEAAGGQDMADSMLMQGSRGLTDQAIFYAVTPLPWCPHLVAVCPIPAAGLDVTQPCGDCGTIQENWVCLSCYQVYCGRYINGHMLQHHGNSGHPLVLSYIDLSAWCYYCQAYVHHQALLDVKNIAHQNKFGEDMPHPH

SGC-7901 = assay: Antiproliferative activity against human SGC-7901 cells; format: functional, cell-based
[13] = target: Phosphatidylinositol 4,5-bisphosphate 3-kinase catalytic subunit alpha isoform (Homo sapiens, UniProt P42336); assay: Inhibition of PI3Kalpha (unknown origin)
Histone deacetylase 1 = Histone deacetylase 1 (Homo sapiens, UniProt Q13547); assay: Inhibition of HDAC1 (unknown origin)
A2780 = assay: Antiproliferative activity against human A2780 cells; format: functional, cell-based
MCF7 [14] = assay: Antiproliferative activity against human MCF7 cells measured after 72 hrs by MTT assay; format: functional, cell-based; details: MCF7, 72 h
HCT-116 [15] = assay: Antiproliferative activity against human HCT-116 cells measured after 72 hrs by MTT assay; format: functional, cell-based; details: HCT-116, 72 h
A549 [16] = assay: Antiproliferative activity against human A549 cells measured after 72 hrs by MTT assay; format: functional, cell-based; details: A549, 72 h
Daudi = assay: Cytotoxicity against human Daudi cells assessed as reduction in cell growth incubated for 24 hrs by MTT assay; format: functional, cell-based
A549 [17] = assay: Cytotoxicity against human A549 cells assessed as reduction in cell growth incubated for 24 hrs by MTT assay; format: functional, cell-based; details: A549, 24 h
MCF7 [18] = assay: Cytotoxicity against human MCF7 cells assessed as reduction in cell growth incubated for 24 hrs by MTT assay; format: functional, cell-based; details: MCF7, 24 h
MV4-11 = assay: Cytotoxicity against human MV4-11 cells assessed as reduction in cell growth incubated for 24 hrs by MTT assay; format: functional, cell-based; details: MV4-11, 24 h
Histone deacetylase 8 = target: T2, Histone deacetylase 8 (Homo sapiens, UniProt Q9BY41); assay: Inhibition of HDAC8 (unknown origin) using R-H-K(Ac)-K(Ac)-AFC as fluoregenic substrate by fluorescence based analysis
T2 sequence (Q9BY41 whole entry): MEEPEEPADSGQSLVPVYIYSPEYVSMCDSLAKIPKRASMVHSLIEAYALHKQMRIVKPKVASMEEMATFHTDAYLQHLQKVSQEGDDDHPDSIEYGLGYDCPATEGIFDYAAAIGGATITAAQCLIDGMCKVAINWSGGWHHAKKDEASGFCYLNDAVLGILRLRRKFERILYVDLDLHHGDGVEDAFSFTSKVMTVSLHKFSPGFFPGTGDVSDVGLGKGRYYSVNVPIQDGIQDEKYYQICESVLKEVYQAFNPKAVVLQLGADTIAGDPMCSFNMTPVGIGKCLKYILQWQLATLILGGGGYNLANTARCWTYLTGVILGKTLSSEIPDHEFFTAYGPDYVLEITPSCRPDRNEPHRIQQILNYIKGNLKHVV

Jurkat = assay: Antiproliferative activity against human Jurkat cells; format: functional, cell-based
[19] = target: Tyrosine-protein kinase JAK2 (Homo sapiens, UniProt O60674); assay: Inhibition of JAK2 (unknown origin)
SW-620 = assay: Antiproliferative activity against human SW620 cells incubated for 72 hrs by colorimetric method; format: functional, cell-based; details: SW-620, 72 h
NCI-H23 = assay: Antiproliferative activity against human NCI-H23 cells incubated for 72 hrs by colorimetric method; format: functional, cell-based; details: NCI-H23, 72 h
PC-3 = assay: Antiproliferative activity against human PC-3 cells incubated for 72 hrs by colorimetric method; format: functional, cell-based; details: PC-3, 72 h

Histone deacetylase 1, sequence (Q13547 whole entry): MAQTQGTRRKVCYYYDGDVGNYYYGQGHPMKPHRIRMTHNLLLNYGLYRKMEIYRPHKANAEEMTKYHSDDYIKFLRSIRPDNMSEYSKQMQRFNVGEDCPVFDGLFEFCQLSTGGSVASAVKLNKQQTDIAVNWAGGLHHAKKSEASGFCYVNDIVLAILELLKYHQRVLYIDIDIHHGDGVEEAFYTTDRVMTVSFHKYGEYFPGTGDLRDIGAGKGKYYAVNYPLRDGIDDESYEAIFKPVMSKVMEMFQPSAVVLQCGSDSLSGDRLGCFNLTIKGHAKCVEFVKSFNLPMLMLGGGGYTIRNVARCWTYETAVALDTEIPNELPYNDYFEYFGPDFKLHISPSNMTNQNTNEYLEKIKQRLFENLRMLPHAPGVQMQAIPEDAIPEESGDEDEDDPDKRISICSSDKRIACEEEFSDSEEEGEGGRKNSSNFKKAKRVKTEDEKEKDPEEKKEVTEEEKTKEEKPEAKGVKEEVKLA
Tyrosine-protein kinase JAK2, sequence (O60674 whole entry): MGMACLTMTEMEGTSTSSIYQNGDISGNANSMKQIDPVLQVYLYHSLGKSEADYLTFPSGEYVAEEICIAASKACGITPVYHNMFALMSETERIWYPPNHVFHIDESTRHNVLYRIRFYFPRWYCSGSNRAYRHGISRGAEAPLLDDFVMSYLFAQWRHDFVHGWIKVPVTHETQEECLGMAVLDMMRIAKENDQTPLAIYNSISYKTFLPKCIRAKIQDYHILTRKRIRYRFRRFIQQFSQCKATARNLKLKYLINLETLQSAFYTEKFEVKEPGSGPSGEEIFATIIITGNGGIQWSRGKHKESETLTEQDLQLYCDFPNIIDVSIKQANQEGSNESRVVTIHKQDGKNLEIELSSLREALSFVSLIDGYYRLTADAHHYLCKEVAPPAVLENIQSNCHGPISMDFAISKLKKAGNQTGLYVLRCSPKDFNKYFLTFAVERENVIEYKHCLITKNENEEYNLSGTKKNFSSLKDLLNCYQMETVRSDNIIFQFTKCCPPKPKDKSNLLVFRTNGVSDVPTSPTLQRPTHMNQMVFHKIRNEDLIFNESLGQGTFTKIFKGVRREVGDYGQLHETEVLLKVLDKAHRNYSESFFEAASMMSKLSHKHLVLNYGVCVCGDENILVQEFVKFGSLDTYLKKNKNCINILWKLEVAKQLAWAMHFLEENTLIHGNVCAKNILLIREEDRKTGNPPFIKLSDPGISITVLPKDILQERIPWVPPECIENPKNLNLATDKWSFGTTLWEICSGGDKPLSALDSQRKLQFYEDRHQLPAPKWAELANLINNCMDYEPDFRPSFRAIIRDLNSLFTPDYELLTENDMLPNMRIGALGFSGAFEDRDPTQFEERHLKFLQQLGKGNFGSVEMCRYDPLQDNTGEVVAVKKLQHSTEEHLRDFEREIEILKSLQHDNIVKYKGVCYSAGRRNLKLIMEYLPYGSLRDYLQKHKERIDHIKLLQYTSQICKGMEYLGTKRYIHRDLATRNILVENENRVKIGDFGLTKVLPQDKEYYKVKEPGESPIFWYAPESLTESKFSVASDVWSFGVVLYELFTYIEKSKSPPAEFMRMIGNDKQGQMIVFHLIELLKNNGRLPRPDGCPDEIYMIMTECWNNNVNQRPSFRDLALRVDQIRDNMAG
Phosphatidylinositol 4,5-bisphosphate 3-kinase catalytic subunit alpha isoform, sequence (P42336 whole entry, canonical isoform): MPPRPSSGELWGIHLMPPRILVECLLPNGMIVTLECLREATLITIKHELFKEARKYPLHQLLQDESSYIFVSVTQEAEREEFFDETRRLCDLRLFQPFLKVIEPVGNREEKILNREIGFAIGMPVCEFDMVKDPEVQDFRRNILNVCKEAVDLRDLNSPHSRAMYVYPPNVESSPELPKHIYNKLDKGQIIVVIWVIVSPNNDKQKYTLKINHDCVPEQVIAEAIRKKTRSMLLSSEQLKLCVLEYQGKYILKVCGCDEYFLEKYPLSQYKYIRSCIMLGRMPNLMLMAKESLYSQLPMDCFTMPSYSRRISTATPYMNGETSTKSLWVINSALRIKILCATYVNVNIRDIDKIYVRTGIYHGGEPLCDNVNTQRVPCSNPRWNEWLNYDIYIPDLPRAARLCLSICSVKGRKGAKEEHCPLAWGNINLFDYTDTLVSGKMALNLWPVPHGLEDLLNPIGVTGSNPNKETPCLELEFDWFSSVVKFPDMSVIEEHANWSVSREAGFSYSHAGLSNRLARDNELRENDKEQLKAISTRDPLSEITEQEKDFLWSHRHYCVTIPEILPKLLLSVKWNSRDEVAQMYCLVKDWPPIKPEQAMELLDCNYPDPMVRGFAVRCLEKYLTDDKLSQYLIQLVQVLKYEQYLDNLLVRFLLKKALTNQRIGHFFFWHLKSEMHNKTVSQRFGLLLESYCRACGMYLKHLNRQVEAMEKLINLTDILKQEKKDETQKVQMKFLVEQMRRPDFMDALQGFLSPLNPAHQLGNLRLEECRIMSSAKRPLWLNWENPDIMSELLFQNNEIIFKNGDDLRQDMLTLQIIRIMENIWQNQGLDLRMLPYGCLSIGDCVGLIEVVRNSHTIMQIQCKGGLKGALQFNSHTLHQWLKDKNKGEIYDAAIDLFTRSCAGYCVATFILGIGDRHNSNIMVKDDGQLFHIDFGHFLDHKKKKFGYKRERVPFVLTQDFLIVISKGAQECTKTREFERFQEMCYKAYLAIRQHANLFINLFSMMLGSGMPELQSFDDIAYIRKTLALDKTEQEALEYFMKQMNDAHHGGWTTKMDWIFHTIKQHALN

SMILES: COc1ccc2c(c1)[nH]c1c(C)nccc12 [HARMINE]
pIC50 (A549 [1]): < 4.70 | pIC50 (HepG2 [2]): < 4.70 | pIC50 (HT-29): < 4.70 | pIC50 (HCT-116 [3]): < 4.70

SMILES: CNC(=O)c1ccccc1Nc1nc(Nc2ccc(N3CCOCC3)cc2OC)ncc1Cl
pIC50 (KYSE-450): 6.14 | inhibition in vivo at 20 mg/kg (MGC-803): 22.3% | pIC50 (HCT-116 [3]): 6.14

SMILES: COc1ccc2cc(C(=O)Oc3cccc(/C=C/C(=O)NO)c3)c(=O)oc2c1
pIC50 (MCF7 [4]): 5.16 | pIC50 (HepG2 [2]): 5.16 | pIC50 (HeLa [5]): 5.16 | pIC50 (HCT-116 [3]): 5.16

SMILES: COc1cccc(Nc2nc(Nc3ccc(NC(=O)CCCCCCC(=O)NO)cc3)ncc2C)c1
pIC50 (Histone deacetylase 1): 7.50 | pIC50 (A549 [1]): 6.85 | pIC50 (Jurkat): 6.85 | pIC50 (HepG2 [2]): 6.85 | pIC50 (MDA-MB-231): 6.85 | pIC50 [19]: 9.30

SMILES: O=C(NO)c1csc(NS(=O)(=O)Nc2ccccc2)n1
pIC50 (SW-620): 5.84 | pIC50 (NCI-H23): 5.84 | pIC50 (PC-3): 5.84

SMILES: O=C(CCCCCN1C(=O)c2ccccc2NC(=O)c2cc3ccccc3cc21)NO
pIC50 (Daudi): 7.03 | pIC50 (A549 [17]): 7.03 | pIC50 (MCF7 [18]): 7.03 | pIC50 (MV4-11): 7.03 | pIC50 (Histone deacetylase 8): 6.74

More lines, main results first:

pIC50 (MCF7 [4]): 5.15 | pIC50 (HepG2 [2]): 5.15 | pIC50 (HeLa [5]): 5.15 | pIC50 (HCT-116 [3]): 5.15
SMILES: CCN(CC)c1ccc2cc(C(=O)Oc3cccc(/C=C/C(=O)NO)c3)c(=O)oc2c1

pIC50 (MCF7 [4]): 6.64 | pIC50 (A549 [1]): 6.64
SMILES: CN1c2ccc(NCC3CCN(c4ncc(C(=O)NO)cn4)CC3)cc2C(=O)N2CCc3c([nH]c4ccc(O)cc34)C21 (configuration not stated)

GI50 (K562): < 10000 nM | GI50 (HeLa [6]): < 10000 nM | GI50 (A549 [7]): < 10000 nM | pIC50 (HeLa [8]): 5.38 | GI50 (MCF7 [9]): < 10000 nM | pIC50 (HCT-116 [10]): 5.38 | pIC50 (HepG2 [11]): 5.38
SMILES: COc1cccc2c1C(=O)c1c(O)c3c(c(O)c1C2=O)C[C@@](O)(C(=O)CO)C[C@@H]3O[C@H]1C[C@H](N)[C@H](O)[C@H](C)O1 [DOXORUBICIN]

pIC50 (MCF7 [4]): 5.66 | pIC50 (HL-60): 5.66 | pIC50 (A549 [1]): 5.66 | pIC50 (MDA-MB-231): 5.66 | pIC50 (A-375): 5.66 | pIC50 [12]: 5.83 | pIC50 (SGC-7901): 5.66 | pIC50 (HCT-116 [3]): 5.66
SMILES: O=C(Cc1ccc(C(=O)NO)cc1)Nc1ccc2ncnc(Nc3ccc(Cl)c(F)c3)c2c1

pIC50 [13]: 8.89 | pIC50 (Histone deacetylase 1): 8.32 | pIC50 (A2780): 5.58
SMILES: COc1ncc(-c2ccc3nccc(C(=O)NCCCCCC(=O)NO)c3c2)cc1NS(=O)(=O)c1cc(F)cc(F)c1

pIC50 (MCF7 [14]): 6.55 | pIC50 (HCT-116 [15]): 6.55 | pIC50 (A549 [16]): 6.55
SMILES: COc1cc2c(Oc3ccc(NC(=O)C4CCN(c5cccc(F)c5)C4=O)cc3)ccnc2cc1OCCCCCCC(=O)NO (configuration not stated)

pIC50 (Histone deacetylase 8): 6.74
SMILES: O=C(CCCCCN1C(=O)c2ccccc2NC(=O)c2ccccc21)NO
pIC50 (Daudi): 7.03 | pIC50 (A549 [17]): 7.03 | pIC50 (MCF7 [18]): 7.03 | pIC50 (MV4-11): 7.03
